Assays:
[1] = molecular target: Tyrosine-protein kinase BTK (Homo sapiens, UniProt Q06187); assay: Selectivity interaction (KinomeScan (DiscoverX, competition-binding assay)) EUB0000353a BTK
[2] = molecular target: Mitogen-activated protein kinase 10 (Homo sapiens, UniProt P53779); assay: Selectivity interaction (KinomeScan (DiscoverX, competition-binding assay)) EUB0000353a MAPK10
[3] = molecular target: Mitogen-activated protein kinase 8 (Homo sapiens, UniProt P45983); assay: Selectivity interaction (KinomeScan (DiscoverX, competition-binding assay)) EUB0000353a MAPK8
Sequence of Mitogen-activated protein kinase 8 (P45983 whole entry): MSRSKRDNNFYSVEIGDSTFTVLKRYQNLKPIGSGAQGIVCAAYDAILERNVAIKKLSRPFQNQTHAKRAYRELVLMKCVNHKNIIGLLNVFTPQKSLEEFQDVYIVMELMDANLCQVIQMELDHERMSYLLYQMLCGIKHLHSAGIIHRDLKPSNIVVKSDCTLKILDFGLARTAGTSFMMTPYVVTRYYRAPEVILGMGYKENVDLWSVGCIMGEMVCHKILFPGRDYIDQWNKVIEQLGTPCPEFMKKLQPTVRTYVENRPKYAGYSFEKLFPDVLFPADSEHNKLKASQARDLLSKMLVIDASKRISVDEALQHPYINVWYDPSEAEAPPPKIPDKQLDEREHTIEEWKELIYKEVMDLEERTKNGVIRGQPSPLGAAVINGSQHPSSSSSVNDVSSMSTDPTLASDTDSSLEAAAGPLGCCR

[4] = molecular target: Alpha-1D adrenergic receptor (Homo sapiens) (UniProt P25100); settings: at 10 µM
Sequence of Alpha-1D adrenergic receptor (Homo sapiens) (P25100 whole entry): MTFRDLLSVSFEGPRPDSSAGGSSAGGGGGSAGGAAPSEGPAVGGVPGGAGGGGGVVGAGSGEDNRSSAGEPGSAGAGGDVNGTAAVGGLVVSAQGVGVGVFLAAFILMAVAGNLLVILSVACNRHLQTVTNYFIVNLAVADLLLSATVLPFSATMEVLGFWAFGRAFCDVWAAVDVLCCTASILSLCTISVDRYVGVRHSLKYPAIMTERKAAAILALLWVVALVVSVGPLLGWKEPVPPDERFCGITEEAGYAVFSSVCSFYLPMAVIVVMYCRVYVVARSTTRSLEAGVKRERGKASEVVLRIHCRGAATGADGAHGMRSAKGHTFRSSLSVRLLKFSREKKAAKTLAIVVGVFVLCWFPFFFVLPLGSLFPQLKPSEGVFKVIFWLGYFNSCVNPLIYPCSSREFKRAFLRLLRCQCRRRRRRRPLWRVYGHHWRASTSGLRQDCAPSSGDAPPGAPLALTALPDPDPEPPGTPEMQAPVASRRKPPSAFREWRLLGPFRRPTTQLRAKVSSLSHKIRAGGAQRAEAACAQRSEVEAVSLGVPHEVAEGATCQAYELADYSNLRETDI

[5] = molecular target: T1, Alpha-1A adrenergic receptor (Homo sapiens, UniProt P35348); assay: Selectivity interaction (Binding assay) EUB0000341aCl ADRA1A
T1 sequence (P35348 whole entry): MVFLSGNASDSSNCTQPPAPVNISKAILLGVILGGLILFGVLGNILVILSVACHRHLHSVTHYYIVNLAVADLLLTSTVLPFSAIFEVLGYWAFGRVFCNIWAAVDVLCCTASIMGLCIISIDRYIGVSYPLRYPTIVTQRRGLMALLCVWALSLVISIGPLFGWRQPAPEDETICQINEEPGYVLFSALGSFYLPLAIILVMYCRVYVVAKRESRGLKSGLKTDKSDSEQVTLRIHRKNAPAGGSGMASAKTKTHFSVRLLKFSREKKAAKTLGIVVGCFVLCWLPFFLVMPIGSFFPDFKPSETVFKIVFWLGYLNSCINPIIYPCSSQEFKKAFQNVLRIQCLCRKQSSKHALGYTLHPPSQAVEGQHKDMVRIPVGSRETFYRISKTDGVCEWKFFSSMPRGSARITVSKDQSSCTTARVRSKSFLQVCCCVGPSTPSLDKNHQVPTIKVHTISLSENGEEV

[6] = molecular target: T2, Alpha-1A adrenergic receptor (Homo sapiens) (UniProt P35348); settings: at 10 µM
T2 sequence (whole entry): T1 sequence (P35348 whole entry)

[7] = molecular target: NT-3 growth factor receptor (Homo sapiens, UniProt Q16288); assay: Selectivity interaction (KinomeScan (DiscoverX)) EUB0000341aCl NTRK3; settings: at 1 µM
Sequence of NT-3 growth factor receptor (Q16288 32-839 limits assumed): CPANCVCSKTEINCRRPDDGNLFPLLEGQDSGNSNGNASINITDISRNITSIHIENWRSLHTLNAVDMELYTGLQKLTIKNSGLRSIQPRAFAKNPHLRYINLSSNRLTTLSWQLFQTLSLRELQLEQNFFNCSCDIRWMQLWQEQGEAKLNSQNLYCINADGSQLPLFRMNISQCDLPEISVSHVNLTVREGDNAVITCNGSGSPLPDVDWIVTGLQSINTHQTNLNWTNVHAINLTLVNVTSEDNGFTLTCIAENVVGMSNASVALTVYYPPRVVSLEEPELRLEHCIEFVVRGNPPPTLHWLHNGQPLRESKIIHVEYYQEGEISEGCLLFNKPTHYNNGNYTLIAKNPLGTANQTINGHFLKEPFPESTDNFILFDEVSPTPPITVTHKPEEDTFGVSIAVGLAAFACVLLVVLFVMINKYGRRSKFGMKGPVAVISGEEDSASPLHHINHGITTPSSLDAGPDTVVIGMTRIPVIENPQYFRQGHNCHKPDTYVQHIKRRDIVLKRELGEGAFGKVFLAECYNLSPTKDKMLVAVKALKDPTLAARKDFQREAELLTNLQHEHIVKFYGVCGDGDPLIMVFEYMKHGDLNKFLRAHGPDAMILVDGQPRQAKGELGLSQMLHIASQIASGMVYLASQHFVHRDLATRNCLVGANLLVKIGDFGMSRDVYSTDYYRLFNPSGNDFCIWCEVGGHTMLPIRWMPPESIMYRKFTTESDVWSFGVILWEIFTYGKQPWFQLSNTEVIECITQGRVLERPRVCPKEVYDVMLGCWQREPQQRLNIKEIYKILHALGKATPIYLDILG

[8] = molecular target: T3, Alpha-1B adrenergic receptor (Homo sapiens, UniProt P35368); assay: Selectivity interaction (Binding assay) EUB0000341aCl ADRA1B
T3 sequence (P35368 whole entry): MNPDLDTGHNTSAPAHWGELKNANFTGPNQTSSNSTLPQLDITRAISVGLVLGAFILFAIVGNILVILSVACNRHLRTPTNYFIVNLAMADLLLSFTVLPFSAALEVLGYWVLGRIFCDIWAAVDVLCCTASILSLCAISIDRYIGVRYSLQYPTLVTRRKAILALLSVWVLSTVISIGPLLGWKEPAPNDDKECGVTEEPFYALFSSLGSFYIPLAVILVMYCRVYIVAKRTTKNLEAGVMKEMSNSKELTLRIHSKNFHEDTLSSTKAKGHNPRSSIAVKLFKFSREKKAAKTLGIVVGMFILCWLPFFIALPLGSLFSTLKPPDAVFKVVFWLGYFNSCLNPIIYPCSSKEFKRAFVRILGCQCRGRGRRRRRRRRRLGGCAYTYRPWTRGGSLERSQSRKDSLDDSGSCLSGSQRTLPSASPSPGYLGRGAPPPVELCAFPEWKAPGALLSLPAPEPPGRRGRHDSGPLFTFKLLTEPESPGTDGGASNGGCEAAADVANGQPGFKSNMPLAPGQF

[9] = tested on: Tyrosine-protein kinase ABL1 (Homo sapiens), P00519 [F317L]; assay: (§1) Selectivity interaction (KinomeScan (DiscoverX)) EUB0000341aCl ABL1; settings: at 1 µM
[10] = tested on: Tyrosine-protein kinase ABL1 (Homo sapiens), P00519 [T315I]; assay: as §1; settings: at 1 µM
[11] = tested on: Tyrosine-protein kinase ABL1 (Homo sapiens), P00519 [M351T]; assay: as §1; settings: at 1 µM
[12] = molecular target: Dual specificity tyrosine-phosphorylation-regulated kinase 1B (Homo sapiens, UniProt Q9Y463); assay: Selectivity interaction (KinomeScan (DiscoverX)) EUB0000341aCl DYRK1B; settings: at 1 µM
Sequence of Dual specificity tyrosine-phosphorylation-regulated kinase 1B (Q9Y463 whole entry, looked up): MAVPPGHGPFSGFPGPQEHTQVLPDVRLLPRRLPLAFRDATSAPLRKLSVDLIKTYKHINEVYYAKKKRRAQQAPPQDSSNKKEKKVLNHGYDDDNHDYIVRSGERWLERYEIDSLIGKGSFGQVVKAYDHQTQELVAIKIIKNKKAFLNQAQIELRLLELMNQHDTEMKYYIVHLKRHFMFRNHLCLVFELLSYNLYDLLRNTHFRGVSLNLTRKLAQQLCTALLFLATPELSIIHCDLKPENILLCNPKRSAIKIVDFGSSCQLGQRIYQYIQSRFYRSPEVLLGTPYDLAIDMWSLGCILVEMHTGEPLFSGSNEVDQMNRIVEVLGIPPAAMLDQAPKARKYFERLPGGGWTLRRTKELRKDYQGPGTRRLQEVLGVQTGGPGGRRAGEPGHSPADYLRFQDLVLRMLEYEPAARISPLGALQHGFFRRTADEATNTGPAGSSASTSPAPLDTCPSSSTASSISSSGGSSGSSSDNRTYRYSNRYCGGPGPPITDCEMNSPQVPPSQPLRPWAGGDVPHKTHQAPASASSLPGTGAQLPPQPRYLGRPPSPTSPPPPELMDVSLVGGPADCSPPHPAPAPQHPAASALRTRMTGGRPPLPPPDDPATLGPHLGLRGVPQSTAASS

Sequence of Mitogen-activated protein kinase 10 (P53779 whole entry): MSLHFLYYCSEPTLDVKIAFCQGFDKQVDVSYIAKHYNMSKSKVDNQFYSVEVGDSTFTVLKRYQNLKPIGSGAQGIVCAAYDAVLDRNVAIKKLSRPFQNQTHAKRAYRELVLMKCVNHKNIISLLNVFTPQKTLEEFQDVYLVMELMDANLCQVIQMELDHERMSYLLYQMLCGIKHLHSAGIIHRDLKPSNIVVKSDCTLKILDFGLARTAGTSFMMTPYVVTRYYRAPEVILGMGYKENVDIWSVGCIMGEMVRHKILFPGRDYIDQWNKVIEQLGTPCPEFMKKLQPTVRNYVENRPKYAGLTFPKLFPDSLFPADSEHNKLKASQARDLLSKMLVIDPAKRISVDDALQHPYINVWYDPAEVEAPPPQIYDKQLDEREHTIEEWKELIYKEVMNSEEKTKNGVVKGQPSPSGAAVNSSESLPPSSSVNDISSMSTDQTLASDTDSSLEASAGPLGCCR
Sequence of Tyrosine-protein kinase BTK (Q06187 whole entry): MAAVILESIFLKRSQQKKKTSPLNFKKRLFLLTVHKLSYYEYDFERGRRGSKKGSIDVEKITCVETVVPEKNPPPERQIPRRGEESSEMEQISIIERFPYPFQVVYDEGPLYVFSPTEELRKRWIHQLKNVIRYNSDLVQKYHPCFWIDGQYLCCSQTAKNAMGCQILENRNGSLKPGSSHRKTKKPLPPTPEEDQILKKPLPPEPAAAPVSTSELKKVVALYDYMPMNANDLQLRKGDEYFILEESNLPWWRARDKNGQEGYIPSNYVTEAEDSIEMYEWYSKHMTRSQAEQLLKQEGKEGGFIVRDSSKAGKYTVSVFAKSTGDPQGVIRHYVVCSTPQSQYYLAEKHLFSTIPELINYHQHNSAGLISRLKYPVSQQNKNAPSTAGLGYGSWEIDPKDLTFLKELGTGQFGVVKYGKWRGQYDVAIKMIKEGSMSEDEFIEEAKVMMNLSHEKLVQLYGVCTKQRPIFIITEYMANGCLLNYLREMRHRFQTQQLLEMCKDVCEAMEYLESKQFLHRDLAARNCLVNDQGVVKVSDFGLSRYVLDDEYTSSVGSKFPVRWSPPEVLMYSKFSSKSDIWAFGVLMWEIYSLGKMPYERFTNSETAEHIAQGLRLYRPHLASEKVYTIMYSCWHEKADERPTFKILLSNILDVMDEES

| Kd [1] [µM] | Kd [2] [µM] | Kd [3] [µM] | % of inhibition [4] [%] | IC50 [5] [µM] | % of inhibition [6] [%] | % of control [7] [%] | IC50 [8] [µM] | % of control [9] [%] | % of control [10] [%] | % of control [11] [%] | % of control [12] [%] | SMILES |
| --- | --- | --- | --- | --- | --- | --- | --- | --- | --- | --- | --- | --- |
| 27 | > 30 | 19 | – | – | – | – | – | – | – | – | – | CN(C)[C@@H]1CCN(c2cc(-c3ccccc3)nc3ccnn23)C1 [(R)-ZINC-3573] |
| – | – | – | 61 | 2.7 | 55 | 0 | 1.2 | 0 | 0 | 0 | 37 | C[C@@H](c1cccc(C#N)c1)n1cc(Cl)cc(C(N)=O)c1=N |
